Test results as given in patent US6177438A, “Morphinan derivatives and pharmaceutical use thereof” (priority 1993, dated 2001).
Structures can show the parent of a compound that is named as a salt.

Legend:
[1] = tested on: nerve cells in the region of the hippocampus CA1; experiment: Delayed neuronal death protective action (gerbil transient ischemia model, hippocampus CA1 nerve cell count); format: in vivo, gerbils; conditions: s.c.; for No. of Residual Nerve Cells: 30 minutes before ischemia, 1 week after ligation; for Suppression of defluxion of brain nerve cells caused by ischemia / cerebro-neuroprotective activity (in words): gerbils
Procedure: Those compounds that provide protection from and suppress delayed neuronal death described in Example 238 are considered to be promising as preventive and therapeutic agents for ischemic brain disorders, brain nerve cell disorders and dementia, which are problems that the present invention is attempting to solve. The pharmacological activity of the compounds of the present invention was evaluated in the manner below using gerbils for the animal model.
A midline incision was made in gerbils having body weights of 50-70 g under ether anesthesia. Blood flow through the carotid arteries on both sides was interrupted to create an ischemic state by ligating the vessels for 5 minutes. The test compound was administered subcutaneously either 30 minutes or 1 hour prior to ligation ischemia, and the rectal temperature of the animals was controlled to 37±2° C. using a heating pad or heater starting 5 minutes before to 30 minutes after ligation ischemia. 1 week after ligation, 4% neutral buffered formalin was perfused from the heart throughout the body followed by extraction of the brain. After post-fixing the extracted brain in the same solution, the tissue was prepared into sections after embedding in paraffin. The sections were stained with hematoxylin and eosin stain, and the number of nerve cells in the region of the hippocampus CA1 over a width of 1 mm to the left and right was counted. The total number of nerve cells on the right and left sides was then used for evaluation.

[2] = tested on: cultured nerve cells (cerebral cortex); experiment: cells; conditions: Rattus norvegicus, Cerebral cortex neuron, 24 h, read-out: ED50 (protection against glutamic acid toxicity)
[3] = tested on: cultured nerve cells (cerebral cortex); conditions: 10 mM glutamic acid, 24 hours
[4] = tested on: acetic acid-induced writhing in ddy mice; experiment: animal or person; format: in vivo, 5 week old ddy mice; conditions: Mus musculus, sc, s.c. 15 minutes before acetic acid, read-out: ED50
Procedure: 5 week old ddy mice were used in this test. After intraperitoneal administration of 0.1 ml of 0.6% aqueous acetic acid per 10 g of body weight, the number of writhing reactions that occurred in 10 minutes starting 10 minutes after administration was evaluated for the indicator. The test drug was administered subcutaneously into the backs of the animals 15 minutes before administration of acetic acid.

[5] = Diuretic action (urine output for 5 hours after physiological saline loading in rats); format: in vivo, male Wistar rats; conditions: Rattus norvegicus, sc, 5 hours after saline 20 ml/kg p.o.; for ED (200% urine output): dose giving urine output of 200 (non-dosed group = 100); for ED (500% urine output): dose giving urine output of 500 (non-dosed group = 100)
Method in brief: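 Doses reported as ED200/ED500, i.e. those raising 5 h urine output to 200 or 500 versus undosed rats set at 100. Subcutaneous dosing preceded an oral 20 ml/kg saline load by 30 min; male Wistar rats, 7-8 weeks, deprived of water 1 h beforehand.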

[6] = tested on: extracted mouse vas deferens preparation; experiment: Opioid activity test using an extracted mouse vas deferens preparation (suppression of electrically induced contractions); set-up: species or system male ddy mouse; conditions: electrical stimulus 0.1 Hz, 37° C.
Method in brief: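 Male ddY mouse vas deferens in Krebs-Henseleit at 37° C, 5% CO2/95% O2, field-stimulated at 0.1 Hz, 5.0 ms; isometric contractions recorded. After adding naloxone, NTI or norBNI, test compound was added cumulatively after ~20 min; Ke derived from the difference in agonist efficacies.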

[7] = tested on: guinea pig respiratory tract; experiment: Antitussive action using the guinea pig respiratory tract stimulation method; format: in vivo, male Hartley guinea pigs; conditions: for ED50: Cavia porcellus, sc; for No. of Animals in which Coughing was Suppressed/No. of Animals Tested: s.c.
Procedure: Evaluation of Antitussive Action Using the Guinea Pig Respiratory Tract Stimulation Method
Male Hartley guinea pigs having body weights of 330-380 g were used in this test in groups of 5 animals each. The animals were immobilized in the supine position under mild anesthesia by intraperitoneal administration of 15 mg/kg of sodium pentobarbital. An incision was made in the necks of the animals to expose the respiratory tract. A small hole was opened in the exposed respiratory tract, and stimulating hairs were inserted to a depth of roughly 3 cm and at an angle of 30 degrees to the respiratory tract through the opened hole to provide a stimulus to the inner wall of the respiratory tract. The animals were then examined for the presence of coughing. […] The test drug was administered subcutaneously, and stimuli were provided two times each 15, 30, 60 and 120 minutes after administration.

κ receptor = biological target: T1, κ receptor (Mus musculus, UniProt P33534); experiment: Opioid activity test using an extracted mouse vas deferens preparation, Ke with norBNI; set-up: species or system male ddy mouse; conditions: for Ke, norBNI: κ, norBNI added; for receptor selectivity of agonist (κ): in words
T1 construct: from tissue; host or cells: mouse (male ddy) vas deferens
T1 sequence (P33534 whole entry): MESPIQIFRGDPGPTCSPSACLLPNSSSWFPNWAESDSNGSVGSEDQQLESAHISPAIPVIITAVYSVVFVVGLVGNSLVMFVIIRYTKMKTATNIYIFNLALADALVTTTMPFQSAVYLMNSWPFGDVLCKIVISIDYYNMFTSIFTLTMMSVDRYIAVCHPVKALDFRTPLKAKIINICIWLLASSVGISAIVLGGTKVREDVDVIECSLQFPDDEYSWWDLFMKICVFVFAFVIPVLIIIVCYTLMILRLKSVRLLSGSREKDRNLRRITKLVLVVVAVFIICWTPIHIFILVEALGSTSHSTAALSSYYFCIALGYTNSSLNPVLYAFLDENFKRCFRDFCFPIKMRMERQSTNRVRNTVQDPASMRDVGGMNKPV

μ receptor = biological target: T2, μ receptor (Mus musculus, UniProt P42866); experiment: Opioid activity test using an extracted mouse vas deferens preparation, Ke with naloxone; set-up: species or system male ddy mouse; conditions: naloxone added
T2 construct: naloxone as mu antagonist (printed 'agonist')
T2 sequence (P42866 whole entry): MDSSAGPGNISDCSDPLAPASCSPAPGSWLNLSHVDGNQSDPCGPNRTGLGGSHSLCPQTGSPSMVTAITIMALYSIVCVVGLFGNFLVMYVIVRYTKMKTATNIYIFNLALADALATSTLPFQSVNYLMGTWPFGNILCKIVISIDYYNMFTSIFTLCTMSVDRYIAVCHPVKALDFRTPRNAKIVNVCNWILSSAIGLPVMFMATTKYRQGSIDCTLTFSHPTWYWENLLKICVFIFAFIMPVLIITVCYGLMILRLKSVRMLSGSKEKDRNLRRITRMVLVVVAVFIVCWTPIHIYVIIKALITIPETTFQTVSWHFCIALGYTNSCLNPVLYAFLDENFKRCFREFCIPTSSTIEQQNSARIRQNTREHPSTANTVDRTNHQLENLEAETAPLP

δ receptor = biological target: T3, δ receptor (Mus musculus, UniProt P32300); set-up: species or system male ddy mouse; conditions: for Ke, NTI: mouse vas deferens, δ, NTI added
T3 construct: The vas deferens extracted from the animal was suspended in a Magnus tube; from tissue; host or cells: mouse (male ddy) vas deferens
T3 sequence (P32300 whole entry): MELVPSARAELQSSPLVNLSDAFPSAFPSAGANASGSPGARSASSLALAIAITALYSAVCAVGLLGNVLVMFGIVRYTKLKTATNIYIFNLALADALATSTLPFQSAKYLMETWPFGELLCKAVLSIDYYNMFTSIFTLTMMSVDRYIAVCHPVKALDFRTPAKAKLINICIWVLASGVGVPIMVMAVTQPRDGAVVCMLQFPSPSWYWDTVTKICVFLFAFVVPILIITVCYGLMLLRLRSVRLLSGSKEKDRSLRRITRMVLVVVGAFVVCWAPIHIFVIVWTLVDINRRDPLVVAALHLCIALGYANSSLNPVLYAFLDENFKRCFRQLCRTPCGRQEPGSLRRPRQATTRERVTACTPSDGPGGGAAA

Compound | No. of Residual Nerve Cells ([1]; 0.03 mg/kg) | No. of Residual Nerve Cells ([1]; 0.3 mg/kg) | No. of Residual Nerve Cells ([1]; 3 mg/kg) | Suppression of defluxion of brain nerve cells caused by ischemia / cerebro-neuroprotective activity (in words) [1] | EC50 [2] [nM] | Protective action against cytotoxicity caused by glutamic acid (in words) [3] | ED50 [4] [µg/kg] | ED (200% urine output) [5] [µg/kg] | ED (500% urine output) [5] [µg/kg] | IC50 [6] [nM] | ED50 [7] [µg/kg] | Ke, norBNI (κ receptor) [nM] | Ke, Naloxone (μ receptor) [nM] | No. of Animals in which Coughing was Suppressed/No. of Animals Tested ([7]; 1 μg/kg) | No. of Animals in which Coughing was Suppressed/No. of Animals Tested ([7]; 3 μg/kg) | No. of Animals in which Coughing was Suppressed/No. of Animals Tested ([7]; 30 μg/kg) | Ke, NTI (δ receptor) [nM] | receptor selectivity of agonist (κ) (κ receptor) | receptor selectivity of agonist (δ) (δ receptor)
CN(C(=O)CCCCCc1ccccc1)[C@H]1CC[C@@]2(O)[C@H]3Cc4ccc(O)c5c4[C@@]2(CCN3CC2CC2)[C@H]1O5 [Compound 36, 17-cyclopropylmethyl-3,14β-dihydroxy-4,5α-epoxy-6α-(N-methyl-6-phenylhexanamido)morphinan.cndot.hydrochloride] | 38.8 ± 19.6 | 85.5 ± 34.9 | 68.0 ± 45.3 | significantly suppress defluxion of brain nerve cells caused by ischemia | 230 | clearly demonstrated action that protects nerve cells from cytotoxicity caused by glutamic acid | 230 | – | – | – | – | – | – | – | – | – | – | – | –
CN(C(=O)/C=C/c1ccoc1)[C@@H]1CC[C@@]2(O)[C@H]3Cc4ccc(O)c5c4[C@@]2(CCN3CC2CC2)[C@H]1O5 [Compound 61, 17-cyclopropylmethyl-3,14β-dihydroxy-4,5α-epoxy-6β-[N-methyl-trans-3-(3-furyl)acrylamido]morphinan.cndot.tartrate] | – | – | – | – | 16300 | clearly demonstrated action that protects nerve cells from cytotoxicity caused by glutamic acid | 4.4 | 3.2 | 157 | 0.42 | 3.7 | 0.164 | – | – | – | – | – | – | –
Cc1cccc(/C=C/C(=O)N(C)[C@@H]2CC[C@@]3(O)[C@H]4Cc5ccc(O)c6c5[C@@]3(CCN4CC3CC3)[C@H]2O6)c1 [Compound 69, 17-cyclopropylmethyl-3,14β-dihydroxy-4,5α-epoxy-6β-(N-methyl-3-methylcinnamamido)morphinan.cndot.hydrochloride] | 12.4 ± 3.0 | 43.3 ± 19.1 | 178.3 ± 30.4 | significantly suppress defluxion of brain nerve cells caused by ischemia | – | – | 4.9 | – | – | 0.32 | 12.5 | 1.95 | 1780 | 1/5 | 1/5 | 4/5 | 64.5 | selective agonists for κ receptors | –
CN(C(=O)/C=C/c1cccc([N+](=O)[O-])c1)[C@@H]1CC[C@@]2(O)[C@H]3Cc4ccc(O)c5c4[C@@]2(CCN3CC2CC2)[C@H]1O5 [Compound 104, 17-cyclopropylmethyl-3,14β-dihydroxy-4,5α-epoxy-6β-(N-methyl-3-nitrocinnamamido)morphinan.cndot.tartrate] | 12.0 ± 3.0 | 14.8 ± 1.2 | 106.2 ± 65.6 | significantly suppress defluxion of brain nerve cells caused by ischemia | 5450 | clearly demonstrated action that protects nerve cells from cytotoxicity caused by glutamic acid | 17 | – | – | 0.227 | – | 1.40 | 185 | – | – | – | 89 | selective agonists for κ receptors | –
CC(C)CN(C(=O)Cc1ccc(Cl)c(Cl)c1)[C@H]1CC[C@@]2(O)[C@H]3Cc4ccc(O)c5c4[C@@]2(CCN3CC2CC2)[C@H]1O5 [Compound 51, 17-cyclopropylmethyl-4,5α-epoxy-3,14β-dihydroxy-6α-(N-isobutyl-3,4-dichlorophenylacetoamido)morphinan.cndot.hydrochloride] | 17.8 ± 6.9 | 46.4 ± 15.1 | 203.8 ± 40.1 | significantly suppress defluxion of brain nerve cells caused by ischemia | 30 | clearly demonstrated action that protects nerve cells from cytotoxicity caused by glutamic acid | 190 | – | – | – | – | – | – | – | – | – | – | – | –
CN(C(=O)C#Cc1ccccc1)[C@H]1CC[C@@]2(O)[C@H]3Cc4ccc(O)c5c4[C@@]2(CCN3CC2CC2)[C@H]1O5 [Compound 84, 17-cyclopropylmethyl-3,14β-dihydroxy-4,5α-epoxy-6α-(N-methyl-3-phenylpropiolamido)morphinan.cndot.hydrochloride] | – | – | – | – | 2700 | clearly demonstrated action that protects nerve cells from cytotoxicity caused by glutamic acid | 5.8 | 2.8 | 46.9 | 2.07 | – | 5.69 | 35.4 | – | – | – | 0.309 | – | selective agonists for δ receptors
